Laboratory results published in patent US12534449B2, “Stable crystalline hydrate of clazosentan disodium salt” (Idorsia Pharmaceuticals Ltd, priority 2020, dated 2026).
Counter-ions that a name gives are not always drawn.

What was measured:
[1] = Solubility of COMPOUND in water; details: room temperature
[2] = Gravimetric vapor sorption (GVS) analysis; format: physicochemical; details: for behaviour of water content with relative humidity (GVS): humidity scan; for water content (GVS) in equivalents of water: equilibrium / final water content
Procedure: Gravimetric vapor sorption analysis of form C was performed on a Hiden Isochema IGAsorp™ Model HAS-036-080. Approximately 20 mg of the sample was placed without any pre-treatment into a stainless-steel mesh sample holder. The measurement was run at 25° C. with changing the humidity in the order 40%-95%-0%-40% RH by steps of 5% RH and with maximum equilibration time of 24 h at each step. Gravimetric vapor sorption experiments for all the other hydrates disclosed herein were performed on a SPS 100n instrument from ProUmid GmbH & Co. KG. Typically, 10-20 mg of material were placed into tared aluminum pans without any pre-treatment. The measurements were again run at 25° C. and with changing the humidity in the order 20%-90%-0%-25% RH by steps of 5% and with maximum equilibration time of 24 h at each step. When plotting the data (see corresponding Figures), weight changes of one equivalent of water are indicated by dotted horizontal lines.

Row | Structure (SMILES) | hydrate stoichiometry attributed from GVS water content / uptake ([2]; 25° C.) | behaviour of water content with relative humidity (GVS) ([2]; 25° C.) | water content (GVS) in equivalents of water [2] | also measured
1 | COc1ccccc1Oc1c(NS(=O)(=O)c2ccc(C)cn2)nc(-c2ccnc(-c3nnn[nH]3)c2)nc1OCCO [COMPOUND, 5-methyl-pyridine-2-sulfonic acid N-{6-(2-hydroxy-ethoxy)-5-(2-methoxy-phenoxy)-2-[2-(1H-tetrazol-5-yl)-pyridin-4-yl]-pyrimidin-4-yl}-amide disodium salt] | – | – | – | solubility in water [1]: about 25 g in 100 mL
2 | COc1ccccc1Oc1c([N-]S(=O)(=O)c2ccc(C)cn2)nc(-c2ccnc(-c3nnn[n-]3)c2)nc1OCCO.[Na+].[Na+] [form P] | trihydrate | – | – | –
3 | COc1ccccc1Oc1c([N-]S(=O)(=O)c2ccc(C)cn2)nc(-c2ccnc(-c3nnn[n-]3)c2)nc1OCCO.[Na+].[Na+] [form C] | – | stable with a slight increase between 5% and 95% RH | – | behaviour of water content below 5% RH (GVS) ([2]; 25° C., below 5% RH): decreases dramatically; water content at the starting point (GVS) ([2]; 40% RH, 25° C., dry basis): 14%
4 | COc1ccccc1Oc1c([N-]S(=O)(=O)c2ccc(C)cn2)nc(-c2ccnc(-c3nnn[n-]3)c2)nc1OCCO.[Na+].[Na+] [form L] | – | – | 3 equivalents | final water content (GVS experiment) ([2]; dried at 0% RH, then re-humidified at 40% RH): about 8%
5 | COc1ccccc1Oc1c([N-]S(=O)(=O)c2ccc(C)cn2)nc(-c2ccnc(-c3nnn[n-]3)c2)nc1OCCO.[Na+].[Na+] [form E] | – | – | approx. 1 equivalents | water content at equilibrium (GVS scan) ([2]; 25° C.): 3%
6 | COc1ccccc1Oc1c([N-]S(=O)(=O)c2ccc(C)cn2)nc(-c2ccnc(-c3nnn[n-]3)c2)nc1OCCO.[Na+].[Na+] [form N] | tetrahydrate | noticeable adsorption of excess water with increasing relative humidity | – | –
